Results taken from ChEMBL document CHEMBL3991601, “The target landscape of clinical kinase drugs” (Science, 2017).
Activity calls are given as the source filed them. For most assays here, no stated cut-off is given here; in the data, actives have a measured Kd and inactives only a lower limit.

Experiments:
[1] = molecular target: Putative heat shock protein HSP 90-beta 2 (Homo sapiens, UniProt Q58FF8)
[2] = molecular target: Protein kinase C theta type (Homo sapiens, UniProt Q04759)
[3] = molecular target: Mitogen-activated protein kinase kinase kinase kinase 5 (Homo sapiens, UniProt Q9Y4K4)
[4] = molecular target: Non-receptor tyrosine-protein kinase TYK2 (Homo sapiens, UniProt P29597)
[5] = molecular target: Ribosomal protein S6 kinase beta-1 (Homo sapiens, UniProt P23443)
[6] = molecular target: Receptor-interacting serine/threonine-protein kinase 2 (Homo sapiens, UniProt O43353)
[7] = molecular target: Tyrosine-protein kinase ABL2 (Homo sapiens, UniProt P42684)
[8] = molecular target: Tyrosine-protein kinase CSK (Homo sapiens, UniProt P41240)
[9] = molecular target: T1, Mitogen-activated protein kinase 15 (Homo sapiens, UniProt Q8TD08)
T1 sequence (Q8TD08 whole entry): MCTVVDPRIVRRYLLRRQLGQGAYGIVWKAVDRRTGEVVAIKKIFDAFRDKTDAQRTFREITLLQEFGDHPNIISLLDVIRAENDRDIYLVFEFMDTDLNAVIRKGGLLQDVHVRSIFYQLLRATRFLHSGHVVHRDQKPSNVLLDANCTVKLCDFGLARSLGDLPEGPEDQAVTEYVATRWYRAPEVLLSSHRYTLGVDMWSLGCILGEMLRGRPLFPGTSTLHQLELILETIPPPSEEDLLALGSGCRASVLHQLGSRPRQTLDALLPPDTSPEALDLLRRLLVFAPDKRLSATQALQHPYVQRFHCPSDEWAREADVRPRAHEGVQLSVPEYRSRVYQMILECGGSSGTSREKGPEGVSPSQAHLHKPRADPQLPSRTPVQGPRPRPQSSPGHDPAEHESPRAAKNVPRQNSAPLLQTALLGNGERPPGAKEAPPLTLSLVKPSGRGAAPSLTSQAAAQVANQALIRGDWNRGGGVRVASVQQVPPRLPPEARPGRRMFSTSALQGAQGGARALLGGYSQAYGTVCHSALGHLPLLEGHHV

[10] = molecular target: Deoxycytidine kinase (Homo sapiens, UniProt P27707)
[11] = molecular target: Cyclin-dependent kinase 7 (Homo sapiens, UniProt P50613)
[12] = molecular target: S-adenosylmethionine synthase isoform type-2 (Homo sapiens, UniProt P31153)
[13] = molecular target: Activated CDC42 kinase 1 (Homo sapiens, UniProt Q07912)
[14] = molecular target: Casein kinase I isoform gamma-1 (Homo sapiens, UniProt Q9HCP0)
[15] = molecular target: Fibroblast growth factor receptor 1 (Homo sapiens, UniProt P11362)
[16] = molecular target: TRAF2 and NCK-interacting protein kinase (Homo sapiens, UniProt Q9UKE5)
[17] = molecular target: Ribosomal protein S6 kinase alpha-4 (Homo sapiens, UniProt O75676)
[18] = molecular target: Inosine-5'-monophosphate dehydrogenase 2 (Homo sapiens, UniProt P12268)
[19] = molecular target: Casein kinase I isoform delta (Homo sapiens, UniProt P48730)
[20] = molecular target: T2, NUAK family SNF1-like kinase 2 (Homo sapiens, UniProt Q9H093)
T2 sequence (Q9H093 whole entry): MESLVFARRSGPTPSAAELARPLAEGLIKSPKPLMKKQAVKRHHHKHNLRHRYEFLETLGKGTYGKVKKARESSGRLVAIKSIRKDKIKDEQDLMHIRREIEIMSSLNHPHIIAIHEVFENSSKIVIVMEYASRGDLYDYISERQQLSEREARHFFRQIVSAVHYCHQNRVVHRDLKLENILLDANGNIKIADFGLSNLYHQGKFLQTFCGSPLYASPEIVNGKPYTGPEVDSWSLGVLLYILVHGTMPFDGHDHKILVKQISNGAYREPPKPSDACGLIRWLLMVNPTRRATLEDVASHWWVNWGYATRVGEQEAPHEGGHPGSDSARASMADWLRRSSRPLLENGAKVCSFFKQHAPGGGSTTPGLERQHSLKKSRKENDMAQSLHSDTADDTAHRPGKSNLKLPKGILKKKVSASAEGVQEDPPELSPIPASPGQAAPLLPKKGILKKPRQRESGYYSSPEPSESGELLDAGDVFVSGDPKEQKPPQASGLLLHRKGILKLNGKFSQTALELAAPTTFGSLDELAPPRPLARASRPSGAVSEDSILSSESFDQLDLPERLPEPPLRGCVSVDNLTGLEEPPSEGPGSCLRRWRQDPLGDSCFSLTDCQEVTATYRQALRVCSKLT

Non-receptor tyrosine-protein kinase TYK2, sequence (P29597 whole entry): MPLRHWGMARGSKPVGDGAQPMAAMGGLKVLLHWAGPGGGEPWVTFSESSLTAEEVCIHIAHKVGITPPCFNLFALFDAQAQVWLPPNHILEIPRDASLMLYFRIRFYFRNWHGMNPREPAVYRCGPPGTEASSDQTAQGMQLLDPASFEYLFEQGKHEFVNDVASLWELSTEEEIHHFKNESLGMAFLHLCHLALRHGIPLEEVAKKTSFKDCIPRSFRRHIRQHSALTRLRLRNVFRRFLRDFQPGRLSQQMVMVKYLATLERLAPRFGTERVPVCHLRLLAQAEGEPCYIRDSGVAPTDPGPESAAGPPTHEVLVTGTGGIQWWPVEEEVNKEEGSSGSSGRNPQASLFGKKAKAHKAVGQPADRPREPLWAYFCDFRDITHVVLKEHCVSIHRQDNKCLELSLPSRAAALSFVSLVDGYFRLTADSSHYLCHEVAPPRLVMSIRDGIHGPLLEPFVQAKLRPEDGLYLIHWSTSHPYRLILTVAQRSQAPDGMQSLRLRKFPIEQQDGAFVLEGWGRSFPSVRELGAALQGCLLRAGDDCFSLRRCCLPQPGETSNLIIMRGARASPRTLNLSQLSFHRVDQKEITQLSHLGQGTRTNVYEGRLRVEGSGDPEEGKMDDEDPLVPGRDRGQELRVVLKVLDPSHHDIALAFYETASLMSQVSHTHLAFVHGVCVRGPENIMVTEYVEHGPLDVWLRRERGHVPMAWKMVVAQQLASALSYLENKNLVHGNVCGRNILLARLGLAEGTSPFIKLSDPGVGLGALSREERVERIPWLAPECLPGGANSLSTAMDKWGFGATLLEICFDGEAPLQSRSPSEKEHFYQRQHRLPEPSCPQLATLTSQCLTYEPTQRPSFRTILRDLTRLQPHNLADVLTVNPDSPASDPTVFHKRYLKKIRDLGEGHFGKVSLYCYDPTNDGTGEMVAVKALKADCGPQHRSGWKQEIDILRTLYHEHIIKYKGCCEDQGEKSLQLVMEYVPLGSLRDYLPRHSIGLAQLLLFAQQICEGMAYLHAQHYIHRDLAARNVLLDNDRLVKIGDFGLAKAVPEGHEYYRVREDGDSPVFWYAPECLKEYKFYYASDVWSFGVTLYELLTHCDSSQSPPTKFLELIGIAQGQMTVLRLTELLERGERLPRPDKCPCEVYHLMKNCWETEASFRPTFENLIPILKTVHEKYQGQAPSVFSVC
Fibroblast growth factor receptor 1, sequence (P11362 whole entry): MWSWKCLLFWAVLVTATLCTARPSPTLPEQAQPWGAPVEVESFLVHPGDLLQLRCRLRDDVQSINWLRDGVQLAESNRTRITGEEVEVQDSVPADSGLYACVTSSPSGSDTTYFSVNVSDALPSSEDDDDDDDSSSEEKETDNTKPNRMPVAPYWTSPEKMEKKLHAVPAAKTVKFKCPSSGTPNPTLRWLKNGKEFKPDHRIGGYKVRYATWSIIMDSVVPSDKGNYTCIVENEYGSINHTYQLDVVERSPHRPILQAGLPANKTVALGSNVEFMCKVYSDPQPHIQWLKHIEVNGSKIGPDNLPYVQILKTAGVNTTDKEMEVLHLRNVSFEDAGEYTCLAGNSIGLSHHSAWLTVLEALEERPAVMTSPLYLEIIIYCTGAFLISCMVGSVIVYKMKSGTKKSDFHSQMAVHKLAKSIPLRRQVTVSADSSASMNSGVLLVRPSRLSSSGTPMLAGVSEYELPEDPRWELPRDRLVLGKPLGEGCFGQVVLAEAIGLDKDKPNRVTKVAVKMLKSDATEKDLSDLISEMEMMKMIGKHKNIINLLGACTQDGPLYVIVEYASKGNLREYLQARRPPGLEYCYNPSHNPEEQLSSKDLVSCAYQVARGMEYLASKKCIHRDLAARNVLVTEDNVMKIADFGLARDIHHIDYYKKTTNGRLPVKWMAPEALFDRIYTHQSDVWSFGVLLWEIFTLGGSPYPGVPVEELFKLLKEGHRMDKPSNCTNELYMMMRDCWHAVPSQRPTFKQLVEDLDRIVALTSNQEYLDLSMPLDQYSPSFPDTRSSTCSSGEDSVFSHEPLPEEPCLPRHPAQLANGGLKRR
Protein kinase C theta type, sequence (Q04759 whole entry): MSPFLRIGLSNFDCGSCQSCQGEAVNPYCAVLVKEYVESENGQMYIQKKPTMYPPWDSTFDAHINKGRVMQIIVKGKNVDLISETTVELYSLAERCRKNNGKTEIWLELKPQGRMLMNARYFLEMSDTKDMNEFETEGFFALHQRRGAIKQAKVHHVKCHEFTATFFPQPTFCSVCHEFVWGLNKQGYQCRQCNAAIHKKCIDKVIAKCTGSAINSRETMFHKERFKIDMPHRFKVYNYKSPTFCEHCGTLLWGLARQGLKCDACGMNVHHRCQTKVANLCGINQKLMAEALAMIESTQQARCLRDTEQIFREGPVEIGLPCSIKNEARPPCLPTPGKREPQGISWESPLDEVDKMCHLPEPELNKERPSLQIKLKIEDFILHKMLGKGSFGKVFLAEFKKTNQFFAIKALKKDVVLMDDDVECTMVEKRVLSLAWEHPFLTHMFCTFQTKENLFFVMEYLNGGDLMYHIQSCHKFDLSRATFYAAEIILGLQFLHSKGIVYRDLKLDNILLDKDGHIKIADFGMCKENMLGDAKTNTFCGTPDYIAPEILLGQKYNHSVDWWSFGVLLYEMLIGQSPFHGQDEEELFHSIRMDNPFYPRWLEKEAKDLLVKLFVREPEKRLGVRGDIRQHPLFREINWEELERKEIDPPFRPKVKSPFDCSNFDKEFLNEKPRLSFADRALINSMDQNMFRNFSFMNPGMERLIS
Ribosomal protein S6 kinase alpha-4, sequence (O75676 whole entry): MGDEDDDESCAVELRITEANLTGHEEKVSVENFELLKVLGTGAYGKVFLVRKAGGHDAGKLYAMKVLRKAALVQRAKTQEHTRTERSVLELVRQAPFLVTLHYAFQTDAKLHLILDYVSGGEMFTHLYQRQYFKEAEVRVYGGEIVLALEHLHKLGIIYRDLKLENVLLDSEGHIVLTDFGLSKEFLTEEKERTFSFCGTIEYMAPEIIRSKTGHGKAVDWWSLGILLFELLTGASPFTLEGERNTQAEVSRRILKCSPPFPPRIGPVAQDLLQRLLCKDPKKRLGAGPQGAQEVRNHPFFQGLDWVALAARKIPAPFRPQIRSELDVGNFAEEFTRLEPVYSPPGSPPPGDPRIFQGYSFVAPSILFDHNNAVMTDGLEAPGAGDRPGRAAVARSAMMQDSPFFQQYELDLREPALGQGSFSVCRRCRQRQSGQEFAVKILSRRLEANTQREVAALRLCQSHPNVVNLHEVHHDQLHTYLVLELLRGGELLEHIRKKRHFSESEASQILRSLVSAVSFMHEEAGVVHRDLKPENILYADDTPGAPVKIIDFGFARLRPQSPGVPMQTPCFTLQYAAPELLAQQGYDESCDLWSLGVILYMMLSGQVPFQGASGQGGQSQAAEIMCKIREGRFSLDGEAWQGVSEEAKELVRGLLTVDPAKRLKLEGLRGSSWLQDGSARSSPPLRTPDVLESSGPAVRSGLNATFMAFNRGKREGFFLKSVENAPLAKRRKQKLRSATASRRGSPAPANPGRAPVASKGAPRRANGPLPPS
Putative heat shock protein HSP 90-beta 2, sequence (Q58FF8 whole entry): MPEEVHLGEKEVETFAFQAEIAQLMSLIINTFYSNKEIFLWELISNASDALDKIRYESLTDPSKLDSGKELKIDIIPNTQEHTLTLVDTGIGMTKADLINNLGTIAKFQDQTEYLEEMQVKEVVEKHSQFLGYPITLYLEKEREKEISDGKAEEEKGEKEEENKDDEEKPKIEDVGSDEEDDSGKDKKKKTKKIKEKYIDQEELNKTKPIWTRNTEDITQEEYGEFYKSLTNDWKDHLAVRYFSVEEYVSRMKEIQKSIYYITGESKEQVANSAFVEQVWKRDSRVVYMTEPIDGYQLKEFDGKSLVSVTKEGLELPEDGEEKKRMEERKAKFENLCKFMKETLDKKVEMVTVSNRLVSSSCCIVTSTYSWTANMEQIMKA
Casein kinase I isoform gamma-1, sequence (Q9HCP0 whole entry, canonical isoform): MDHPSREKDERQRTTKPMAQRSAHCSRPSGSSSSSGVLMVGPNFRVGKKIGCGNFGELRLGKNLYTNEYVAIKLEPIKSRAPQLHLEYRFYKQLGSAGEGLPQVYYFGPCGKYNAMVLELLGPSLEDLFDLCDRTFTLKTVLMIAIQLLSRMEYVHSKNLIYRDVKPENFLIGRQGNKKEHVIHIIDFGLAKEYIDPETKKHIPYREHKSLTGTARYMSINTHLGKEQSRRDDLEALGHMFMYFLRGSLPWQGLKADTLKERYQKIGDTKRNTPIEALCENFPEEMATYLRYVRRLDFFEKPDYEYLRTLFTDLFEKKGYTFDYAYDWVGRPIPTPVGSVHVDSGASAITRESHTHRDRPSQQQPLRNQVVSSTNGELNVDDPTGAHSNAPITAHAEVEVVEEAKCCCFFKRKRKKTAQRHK
Ribosomal protein S6 kinase beta-1, sequence (P23443 whole entry): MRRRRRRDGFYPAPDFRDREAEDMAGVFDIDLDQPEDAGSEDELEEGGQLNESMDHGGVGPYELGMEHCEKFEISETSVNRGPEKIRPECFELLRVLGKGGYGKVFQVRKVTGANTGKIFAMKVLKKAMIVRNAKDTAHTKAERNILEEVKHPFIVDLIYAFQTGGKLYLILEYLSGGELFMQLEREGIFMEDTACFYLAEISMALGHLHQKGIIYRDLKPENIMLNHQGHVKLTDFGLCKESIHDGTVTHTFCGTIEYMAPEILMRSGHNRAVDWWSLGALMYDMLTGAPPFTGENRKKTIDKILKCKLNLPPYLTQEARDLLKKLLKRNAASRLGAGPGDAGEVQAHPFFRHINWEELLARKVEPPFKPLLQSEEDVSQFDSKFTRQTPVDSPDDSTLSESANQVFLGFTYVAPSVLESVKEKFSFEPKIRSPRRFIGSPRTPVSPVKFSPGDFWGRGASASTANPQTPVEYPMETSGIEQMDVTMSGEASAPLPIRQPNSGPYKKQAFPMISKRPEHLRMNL

Row | Structure (SMILES) | Kd [1] | Kd [2] | Kd [3] | Kd [4] | Kd [5] | Kd [6] | Kd [7] | Kd [8] | Kd [10] | Kd [11] | Kd [12] | Kd [13] | Kd [14] | Kd [15] | Kd [16] | Kd [17] | Kd [18] | Kd [19] | Kd [20] | Kd [9]
1 | COc1cc([C@@H]2c3cc4c(cc3[C@H](O)[C@H]3COC(=O)[C@@H]23)OCO4)cc(OC)c1OC [AXL-1717] | > 30 µM (inactive) | > 30 µM (inactive) | > 30 µM (inactive) | > 30 µM (inactive) | > 30 µM (inactive) | > 30 µM (inactive) | > 30 µM (inactive) | > 30 µM (inactive) | > 30 µM (inactive) | > 30 µM (inactive) | > 30 µM (inactive) | > 30 µM (inactive) | > 30 µM (inactive) | > 30 µM (inactive) | > 30 µM (inactive) | > 30 µM (inactive) | > 30 µM (inactive) | > 30 µM (inactive) | > 30 µM (inactive) | > 30 µM (inactive)
2 | Cn1cnc2c(F)c(Nc3ccc(Br)cc3F)c(C(=O)NOCCO)cc21 [BINIMETINIB] | > 30 µM (inactive) | > 30 µM (inactive) | > 30 µM (inactive) | > 30 µM (inactive) | > 30 µM (inactive) | > 30 µM (inactive) | > 30 µM (inactive) | > 30 µM (inactive) | > 30 µM (inactive) | > 30 µM (inactive) | > 30 µM (inactive) | > 30 µM (inactive) | > 30 µM (inactive) | > 30 µM (inactive) | > 30 µM (inactive) | > 30 µM (inactive) | > 30 µM (inactive) | > 30 µM (inactive) | > 30 µM (inactive) | > 30 µM (inactive)
3 | CCn1c(C(=O)N(C2CC2)C2CC2)cc2c3c(ncn3C)c(Nc3cc(C)n(C)n3)nc21 [BMS-911543] | > 30 µM (inactive) | > 30 µM (inactive) | > 30 µM (inactive) | > 30 µM (inactive) | > 30 µM (inactive) | > 30 µM (inactive) | > 30 µM (inactive) | > 30 µM (inactive) | > 30 µM (inactive) | > 30 µM (inactive) | > 30 µM (inactive) | > 30 µM (inactive) | > 30 µM (inactive) | > 30 µM (inactive) | > 30 µM (inactive) | > 30 µM (inactive) | > 30 µM (inactive) | > 30 µM (inactive) | > 30 µM (inactive) | > 30 µM (inactive)

The next lines start with results.

Row | Kd [1] | Kd [2] | Kd [3] | Kd [4] | Kd [5] | Kd [6] | Kd [7] | Kd [8] | Kd [10] | Kd [11] | Kd [12] | Kd [13] | Kd [14] | Kd [15] | Kd [16] | Kd [17] | Kd [18] | Kd [19] | Kd [20] | Structure (SMILES) | Kd [9]
4 | > 30 µM (inactive) | > 30 µM (inactive) | > 30 µM (inactive) | > 30 µM (inactive) | > 30 µM (inactive) | > 30 µM (inactive) | > 30 µM (inactive) | > 30 µM (inactive) | > 30 µM (inactive) | > 30 µM (inactive) | > 30 µM (inactive) | > 30 µM (inactive) | > 30 µM (inactive) | > 30 µM (inactive) | > 30 µM (inactive) | > 30 µM (inactive) | > 30 µM (inactive) | > 30 µM (inactive) | > 30 µM (inactive) | C=CC(=O)Nc1cc2c(Nc3ccc(F)c(Cl)c3)ncnc2cc1C#CC(C)(C)N1CCN(C)CC1 [AV-412 FREE BASE] | > 30 µM (inactive)
5 | > 30 µM (inactive) | > 30 µM (inactive) | 20.1 µM (active) | > 30 µM (inactive) | > 30 µM (inactive) | 0.442 µM (active) | 0.03 µM (active) | > 30 µM (inactive) | > 30 µM (inactive) | > 30 µM (inactive) | > 30 µM (inactive) | > 30 µM (inactive) | > 30 µM (inactive) | > 30 µM (inactive) | > 30 µM (inactive) | > 30 µM (inactive) | > 30 µM (inactive) | > 30 µM (inactive) | > 30 µM (inactive) | COc1cc2ncnc(Oc3cccc(NC(=O)Nc4cc(C(C)(C)C(F)(F)F)on4)c3)c2cc1OC [CEP-32496] | > 30 µM (inactive)
